Read-outs that look alike come from different tables or passages of the source.
Assays:
[1] = target: T1, human A2B adenosine receptors (Homo sapiens, UniProt P29275); assay: Radioligand competitive binding, ADENOSINE A2B (HEK293), [3H]-DPCPX (Table 8); set-up: purchased Receptor Biology; host or cells: HEK 293; conditions: [3H]-DPCPX 30-40 nM
T1 sequence (P29275 1-332): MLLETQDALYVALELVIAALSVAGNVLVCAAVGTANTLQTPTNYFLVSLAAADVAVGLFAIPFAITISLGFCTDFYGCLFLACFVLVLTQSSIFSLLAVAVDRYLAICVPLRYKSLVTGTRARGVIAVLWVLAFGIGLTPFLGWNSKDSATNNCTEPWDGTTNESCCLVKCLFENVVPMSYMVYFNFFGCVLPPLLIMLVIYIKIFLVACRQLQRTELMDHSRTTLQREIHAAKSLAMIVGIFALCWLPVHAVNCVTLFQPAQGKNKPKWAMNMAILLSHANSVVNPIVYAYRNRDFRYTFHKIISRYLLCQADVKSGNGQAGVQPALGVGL
Procedure: Membranes (50 μg membrane protein), radioligands, and varying concentrations of competing ligands were incubated in triplicate in 0.1 mL buffer HE plus 2 units/mL adehosine, deaminase for 2 hours at 21° C. The radioligand used for competitive binding assays for human A2B adenosine receptors was [^3H]-8-cyclopentyl-1,3-dipropyxanthine ([^3H]-DPCPX, 30-40 nM) (NEN, Boston, Mass.). Nonspecific binding was measured in the presence of 10 μM 5′N-ethylcarboxamidoadenosine (NECA; from RBI-Sigma, Natick, Mass.). Binding assays were terminated by filtration over Whatman GF/C glass fiber filters using a BRANDEL cell harvester (Gaithersburg, Md.). The filters were rinsed three times with 3 to 4 mL ice-cold 10 mM Tris-HCl, pH 7.4 and 5 mM magnesium chloride (MgCl2) at 4° C. and were counted in a Wallac β-counter (Perkin Elmer, Boston, Mass.).
Competitive binding data were fit to a single site binding model and plotted using Prizm GraphPad. The Cheng-Prusoff equation KI=IC50/(1+[I]/KD) was used to calculate KI values from IC50 values, where KI is the affinity constant for the competing ligand, [I] is the concentration of the free radioligand, and KD is the affinity constant for the radioligand (Cheng and Prusoff 1973).

[2] = target: T2, recombinant canine A1 adenosine receptors (Canis lupus familiaris, UniProt P11616); assay: Radioligand competition binding, canine A1 receptor (3H-CPX), transfected HEK 293 membranes
T2 construct: expressed in transfected cells
T2 sequence (P11616 1-326): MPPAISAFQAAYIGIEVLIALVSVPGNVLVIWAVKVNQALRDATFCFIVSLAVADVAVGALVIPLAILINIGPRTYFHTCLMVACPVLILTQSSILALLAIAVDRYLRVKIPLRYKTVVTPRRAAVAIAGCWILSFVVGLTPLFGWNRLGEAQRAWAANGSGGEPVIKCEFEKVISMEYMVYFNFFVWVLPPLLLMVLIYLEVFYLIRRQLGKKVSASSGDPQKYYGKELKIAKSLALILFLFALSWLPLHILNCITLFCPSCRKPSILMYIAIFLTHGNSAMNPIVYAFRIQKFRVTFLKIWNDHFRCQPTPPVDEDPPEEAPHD
Procedure: (§1) Membranes (40-70 μg membrane protein), radioligands, and varying concentrations of competing ligands were incubated in triplicate in 0.1 ml buffer HE plus 2 units/mL adenosine deaminase for 2.5 hours at 21° C. The radioligands used for competitive binding assays were: [^3H]-8-cyclopentyl-1,3-dipropyxanthine ([^3H]-DPCPX) (NEN, Boston, Mass.) for A1 and A2b adenosine receptors, [^3H]-4-(2-[7-amino-2-(furyl)(1,2,4)triazole(2,3-a)(1,3,5)triazin-5-ylaminoethyly)phenol ([^3H] ZM241385) for A2a adenosine receptors (Tocris, Bristol, UK), and [^125Iodine]-labeled N6-(4-aminobenzyl)-9-(5-(methylcarbonyl)-β-D-ribofuranosyl) adenine ([^125I]-AB-MECA) or [^3H]-R-N^6-phenylisopropyladenosine (H^3R]-R-PIA) for A3 adenosine receptors (both from NEN, Boston, Mass.). Nonspecific binding was measured in the presence of 10 μM 5′N ethylcarboxamidoadenosine (NECA, from RBI-Sigma, Natick, Mass.) for A1 and A2b receptors, or 10 μM xanthine amino congener (XAC, from RBI-Sigma, Natick, Mass.) for A2a receptors. Binding assays were terminated by filtration over Whatman GF/C glass fiber filters using a BRANDEL cell harvester (Gaithersburg, Md.).

[3] = test system: open-chest, barbital-anesthetized dogs; assay: Protocol II (preconditioning): four 5-minute occlusion/reperfusion cycles before 60-minute occlusion and 3 hours reperfusion in dogs; assay type: in vivo, dog; conditions: for Effect on the protective effects of ischemic preconditioning: 1 mg/kg i.v. bolus + 10 μg/kg/min
Procedure: Preconditioning was elicited by four 5-minute occlusion/5-minute reperfusion cycles produced 10 minutes before the 60-minute occlusion.

[4] = target: T3, recombinant canine A2a adenosine receptors (Canis lupus familiaris, UniProt P11617); assay: Radioligand competition binding, canine A2a receptor (3H-ZM 241385), transfected HEK 293 membranes
T3 construct: expressed in transfected cells
T3 sequence (P11617 whole entry): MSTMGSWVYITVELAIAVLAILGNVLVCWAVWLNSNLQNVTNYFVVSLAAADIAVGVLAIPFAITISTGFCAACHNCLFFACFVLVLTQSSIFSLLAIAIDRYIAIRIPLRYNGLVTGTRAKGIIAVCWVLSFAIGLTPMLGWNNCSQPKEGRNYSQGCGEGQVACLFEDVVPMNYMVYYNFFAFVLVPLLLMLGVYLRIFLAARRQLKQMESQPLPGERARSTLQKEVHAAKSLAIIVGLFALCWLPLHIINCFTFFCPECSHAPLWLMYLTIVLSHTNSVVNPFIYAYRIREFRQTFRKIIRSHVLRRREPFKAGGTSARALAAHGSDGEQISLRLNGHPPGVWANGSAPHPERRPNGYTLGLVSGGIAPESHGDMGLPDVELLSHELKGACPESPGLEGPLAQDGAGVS
Procedure: Membranes (40-70 μg membrane protein), radioligands, and varying concentrations of competing ligands were incubated in triplicate in 0.1 ml buffer HE plus 2 units/mL adenosine deaminase for 2.5 hours at 21° C. […] Nonspecific binding was measured in the presence of 10 μM 5′N ethylcarboxamidoadenosine (NECA, from RBI-Sigma, Natick, Mass.) for A1 and A2b receptors, or 10 μM xanthine amino congener (XAC, from RBI-Sigma, Natick, Mass.) for A2a receptors. Binding assays were terminated by filtration over Whatman GF/C glass fiber filters using a BRANDEL cell harvester (Gaithersburg, Md.).

[5] = test system: open-chest, barbital-anesthetized dogs; assay: Protocol III (reperfusion): 60 minutes occlusion and 3 hours reperfusion, drug from 10 minutes before release of occlusion, dogs; assay type: in vivo, dog; conditions: for Infarct size expressed as a percentage of the risk region, in words: administration during the early phase of reperfusion
Procedure: (§2) The studies were performed in open-chest, barbital-anesthetized dogs instrumented to measure heart rate, blood pressure, left ventricular pressure, and regional myocardial blood flow (radioactive microspheres). A mechanical occluder was placed around a proximal portion of the left anterior descending coronary artery to produce ischemia and reperfusion. At the end of the experiments, infarct size was determined-by histochemical staining (patent blue dye and triphenyltetrazolium) and expressed as a percentage of the region at risk or as a percentage of the entire left ventricle.
In the reperfusion protocol (see FIG. 3, protocol III), the dogs were subjected to 60 minutes of coronary artery occlusion followed by three hours of reperfusion. […] The antagonists were administered at a dose of 1 mg/kg i.v. bolus followed by an infusion of 10 μg/kg/min for one hour.

[6] = test system: open-chest, barbital-anesthetized dogs; assay: Protocol I (pretreatment): 60 minutes of coronary artery occlusion and 3 hours of reperfusion in dogs
Procedure: as §2
In the pretreatment protocol (see FIG. 1, protocol I), the dogs were subjected to 60 minutes of coronary artery occlusion and 3 hours or reperfusion after which the hearts were removed and infarct size was assessed. […] All of the antagonists were administered at a dose of 1 mg/kg as an i.v. bolus followed by and infusion of 10 μg/kg/min continued until immediately before reperfusion (70 minutes total).

[7] = target: T4, recombinant human A3 adenosine receptors (Homo sapiens, UniProt P0DMS8); assay: Radioligand binding, human A3 receptor ([125I]-AB-MECA), incl. one-point binding at 10 μM; conditions: read-out: Percent (%) Inhibition at 10 μM Antagonist, A3
T4 construct: expressed in transfected cells; host or cells: HEK 293
T4 sequence (P0DMS8 1-318): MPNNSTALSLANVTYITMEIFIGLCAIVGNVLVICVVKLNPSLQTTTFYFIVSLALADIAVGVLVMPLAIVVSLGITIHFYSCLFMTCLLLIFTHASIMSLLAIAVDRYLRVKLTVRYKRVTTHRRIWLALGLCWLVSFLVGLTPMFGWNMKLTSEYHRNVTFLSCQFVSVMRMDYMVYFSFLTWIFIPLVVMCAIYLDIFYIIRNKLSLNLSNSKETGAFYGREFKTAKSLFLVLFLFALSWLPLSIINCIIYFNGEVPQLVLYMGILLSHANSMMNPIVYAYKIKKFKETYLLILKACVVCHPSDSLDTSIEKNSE

[8] = target: T5, recombinant canine A3 adenosine receptors (Canis lupus familiaris, UniProt Q28309); assay: Radioligand competition binding, canine A3 receptor (R-PIA), transfected HEK 293 membranes; conditions: mean ± SEM, n = 3
T5 construct: expressed in transfected cells
T5 sequence (Q28309 1-314): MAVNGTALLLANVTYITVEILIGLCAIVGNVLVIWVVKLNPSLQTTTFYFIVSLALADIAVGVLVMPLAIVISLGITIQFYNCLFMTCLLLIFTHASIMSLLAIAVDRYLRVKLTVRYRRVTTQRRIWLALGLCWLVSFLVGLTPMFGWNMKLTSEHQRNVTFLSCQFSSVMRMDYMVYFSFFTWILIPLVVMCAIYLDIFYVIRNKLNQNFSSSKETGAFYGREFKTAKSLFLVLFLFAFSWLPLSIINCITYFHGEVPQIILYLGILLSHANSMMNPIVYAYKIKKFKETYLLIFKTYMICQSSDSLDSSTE
Procedure: as §1, with “Md.). The-filters were rinsed three times with 3-4 mL ice-cold 10 mM Tris-HCl, pH 7.4 and 5 mM magnesium chloride (MgCl2) at 4° C., and were counted in a Wallac β-counter (Perkin Elmer, Boston, Mass.).” for “Md.).”

How did the Ki [1] turn out when `CCCn1c(=O)c2[nH]c(C34CCC(CCc5nnn[nH]5)(CC3)CC4)nc2n(CCC)c1=O` [Compound 17] was run?
The Ki was 160 nM.

`CCCn1c(=O)c2[nH]c(C34CCC(/C=C/C(=O)O)(CC3)OC4)nc2n(CCC)c1=O` [Compound 13] was tested. Which Ki [1] did it give?
The Ki was 117 nM.

For `CCCn1c(=O)c2nc(C34CCC(CCC(=O)Nc5nnn[nH]5)(CC3)CC4)[nH]c2n(CCC)c1=O` [Compound 10], which Ki [1] is on record?
Its Ki is 85.6 nM.

Which Ki [1] does the source give for `CCCn1c(=O)c2[nH]c(C34CCCC(O)(CC3)CC4)nc2n(CCC)c1=O` [Compound 6] here?
The Ki was 47 nM.

How did the Ki [1] turn out when `CCCn1c(=O)c2[nH]c(C3C4CC5C(C4CCCN(C)C)C53)nc2n(CCC)c1=O` (centres unmarked) [Compound 1] was run?
The Ki was 14.6 nM.

For `CCCn1c(=O)c2[nH]c(C34CCC(CN(C)C)(CC3)CC4)nc2n(CCN)c1=O` [Compound 4], which Ki [1] is on record?
Its Ki is 39 nM.

Which Ki [1] does the source give for `CCCn1c(=O)c2nc(C34CCC(C5=NOC(C(=O)O)C5)(CC3)CC4)[nH]c2n(CCC)c1=O` (centres unmarked) [Compound 16] here?
Its Ki is 131 nM.

How did the Ki [1] turn out when `CCCn1c(=O)c2[nH]c(C34CCCC(OCC(=O)O)(CC3)CC4)nc2n(CCC)c1=O` [Compound 18] was run?
The Ki was 168 nM.

How did the Ki [1] turn out when `CCCn1c(=O)c2[nH]c(C3CC4CCC(C3)C4NCC(=O)OCC)nc2n(CCC)c1=O` (centres unmarked) [Compound 11] was run?
Its Ki is 93 nM.

`CCCn1c(=O)c2[nH]c(C34CCC(CCC(=O)O)(CC3)CC4)nc2n(CCC)c1=O` [Compound 7] was tested. Which Ki [1] did it give?
The Ki was 51.4 nM.

Which Ki [1] does the source give for `CCCn1c(=O)c2[nH]c(C34CCC(CN)(CC3)CC4)nc2n(CCC)c1=O` [Compound 8] here?
Its Ki is 55.2 nM.

What does the source list for `CCCn1c(=O)c2[nH]c([C@H]3C[C@@H]4C[C@H]3[C@H]3O[C@@H]43)nc2n(CCC)c1=O` [BG 9719, 8-(2S-5,6-exo-epoxy-endo-norborn-2-yl)-1,3-dipropyl-3,7-dihydro-purine-2,6-dione]?
Ki ([2]; canine, mean ± SEM, n = 3, 3H-CPX, read-out: Ki, A1): 35.8 ± 4 nM; Effect on the protective effects of ischemic preconditioning ([3]; Protocol II): did not block; Ki ([4]; canine, mean ± SEM, n = 3, 3H-ZM 241385, read-out: Ki, A2a): 2820 nM; Infarct size expressed as a percentage of the risk region, in words [5]: no protective effect; Relationship between infarct size and transmural collateral blood flow compared to control group [6]: similar; inhibition at 10 µM [7]: 40.6%; Ki [8]: 19100 nM

For `CCCn1c(=O)c2[nH]c(C34CCC(O[C@@H](C)C(=O)O)(CC3)CC4)nc2n(CCC)c1=O` [Compound 5], which Ki [1] is on record?
The Ki was 45.1 nM.

With `CCCn1c(=O)c2[nH]c(C34CCC(/C=C/C(=O)O)(CC3)CC4)nc2n(CCC)c1=O` [Compound 12] as the compound, how does the Ki [1] read?
Its Ki is 100 nM.

`CCCn1c(=O)c2[nH]c(-c3ccc(C#N)cc3)c(O)c2n(CCC)c1=O` [Compound 3] was tested. Which Ki [1] did it give?
The Ki was 27 nM.

Which Ki [1] does the source give for `CCCn1c(=O)c2[nH]c(C34CCC(OCCC(=O)O)(CC3)C4)nc2n(CCC)c1=O` [Compound 14] here?
Its Ki is 125 nM.

With `CCCn1c(=O)c2[nH]c(C34CCC(OCC(=O)O)(CC3)C4)nc2n(CCC)c1=O` [Compound 2] as the compound, how does the Ki [1] read?
The Ki was 15.2 nM.

With `CCCn1c(=O)c2[nH]c(C3CCCC3)nc2n(CCC)c1=O` [CPX, 8-Cyclopentyl-1,3-dipropyl-3,7-dihydro-purine-2,6-dione] as the compound, how does the Ki [2] read?
The Ki was 18.1 ± 4.4 nM.

And the “Addition to the protective effect of ischemic preconditioning” value ([3]; Protocol II)?
The value was “added to the protective effect”.

And the “Relationship between infarct size and collateral blood flow compared to preconditioned control” value ([3]; Protocol II (preconditioning))?
The value was “shifted downward further”.

What about the “Effect on the protective effects of ischemic preconditioning” value ([3]; Protocol II) of the same compound?
The value was “did not block”.

And the Ki [4]?
The Ki was 162 ± 22 nM.

What about the “Infarct size expressed as a percentage of the entire left ventricle, in words” value [5] of the same compound?
The value was “a significant reduction in infarct size was not observed”.

What about the “Relationship between infarct size and collateral blood flow compared to control group” value [5] of the same compound?
Its value is “shifted downward”.

What about the “Reduction in infarct size (percentage of the risk region)” value ([5]; 1 mg/kg i.v. bolus + 10 μg/kg/min for one hour from 10 minutes before release of occlusion) of the same compound?
The value was 42%.

And the “Infarct size expressed as a percentage of the risk region, in words” value [5]?
Its value is “reduced significantly”.

What about the “Relationship between infarct size and transmural collateral blood flow compared to control group” value [6] of the same compound?
Its value is “shifted downward”.

And the “Infarct size (percentage of risk region or of left ventricle) compared with control, in words” value ([6]; 1 mg/kg i.v. bolus + 10 μg/kg/min from 10 minutes before occlusion)?
The value was “significantly smaller”.

What about the Infarct size reduction ([6]; 1 mg/kg i.v. bolus + 10 μg/kg/min from 10 minutes before occlusion, vs control) of the same compound?
The Infarct size reduction was 51%.

And the Ki [8]?
The Ki was 1960 nM.

With `CCCn1c(=O)c2nc(C34CCC(CCCC(=O)O)(CC3)CC4)[nH]c2n(CCC)c1=O` [Compound 15] as the compound, how does the Ki [1] read?
The Ki was 127 nM.

For `CCCn1c(=O)c2[nH]c(C34CCC(O)C(CC3)C4)nc2n(CCC)c1=O` (centres unmarked) [Compound 9], which Ki [1] is on record?
The Ki was 76.9 nM.

— patent US20050203065A1, “Method of treating ischemia reperfusion injury using adenosine receptor antagonists” (priority 2002, published 2005)
